Reference: ChEMBL document CHEMBL4052725, “Synthesis and biological evaluation of novel steroidal 5α,8α-epidioxyandrost-6-ene-3β-ol-17-(O-phenylacetamide)oxime derivatives as potential anticancer agents” (Bioorg Med Chem Lett, 2017)

How the values were obtained:
SK-HEP1 = test: Antiproliferative activity against human SKHEP1 cells after 48 hrs by MTT assay; assay type: functional, cell-based; details: SK-HEP1, 48 h
MDA-MB-231 = test: Antiproliferative activity against human MDA-MB-231 cells after 48 hrs by MTT assay; assay type: functional, cell-based; details: MDA-MB-231, 48 h
MCF7 = test: Antiproliferative activity against human MCF7 cells after 48 hrs by MTT assay; assay type: functional, cell-based; details: MCF7, 48 h
HepG2 = test: Antiproliferative activity against human HepG2 cells after 48 hrs by MTT assay; assay type: functional, cell-based; details: HepG2, 48 h
[1] = Drug localization in mitochondria of human HepG2 cells at 10 uM after 30 mins by Rh123 green dye-based confocal laser scanning microscopic analysis; assay type: ADME; details: 0.5 h
[2] = Drug localization in human HepG2 cells at 10 uM after 2 hrs by confocal laser scanning microscopic analysis; assay type: ADME, cell-based; details: hepg2, 2 h

Cc1ccc(NC(=O)CO/N=C2\CC[C@H]3C4=CC=C5C[C@@H](O)CC[C@]5(C)[C@H]4CC[C@]23C)cc1Cl
IC50 (SK-HEP1): 19.8 µM | IC50 (MDA-MB-231): 29.2 µM | IC50 (MCF7): 34.3 µM | IC50 (HepG2): 17.8 µM

C[C@]12CC[C@@H]3[C@]4(C=C[C@]5(C[C@@H](O)CC[C@]35C)OO4)[C@@H]1CC/C2=N\OCC(=O)Nc1ccc(F)c(Cl)c1
IC50 (SK-HEP1): 14.3 µM | IC50 (MDA-MB-231): 24.6 µM | IC50 (MCF7): 26.2 µM | IC50 (HepG2): 11.3 µM

C[C@]12CC[C@@H]3[C@]4(C=C[C@]5(C[C@@H](O)CC[C@]35C)OO4)[C@@H]1CC/C2=N\OCC(=O)Nc1cccc(C(F)(F)F)c1
IC50 (SK-HEP1): 15.6 µM | IC50 (MDA-MB-231): 20.4 µM | IC50 (MCF7): 23.1 µM | IC50 (HepG2): 13.5 µM

C[C@]12CC[C@@H]3[C@]4(C=C[C@]5(C[C@@H](O)CC[C@]35C)OO4)[C@@H]1CC/C2=N\OCC(=O)Nc1cccc(Cl)c1
IC50 (SK-HEP1): 22.8 µM | IC50 (MDA-MB-231): 29.5 µM | IC50 (MCF7): 34.4 µM | IC50 (HepG2): 15.4 µM

C[C@]12CC[C@@H]3[C@]4(C=C[C@]5(C[C@@H](O)CC[C@]35C)OO4)[C@@H]1CC/C2=N\OCC(=O)Nc1ccc(Br)cc1
IC50 (SK-HEP1): 24.4 µM | IC50 (MDA-MB-231): 37.5 µM | IC50 (MCF7): 40.3 µM | IC50 (HepG2): 29.9 µM

C[C@]12CC[C@@H]3[C@]4(C=C[C@]5(C[C@@H](O)CC[C@]35C)OO4)[C@@H]1CC/C2=N\OCC(=O)Nc1ccc(Cl)cc1
IC50 (SK-HEP1): 11.1 µM | IC50 (MDA-MB-231): 14.2 µM | IC50 (MCF7): 19.5 µM | IC50 (HepG2): 14.8 µM

CC(C)c1ccc(NC(=O)CO/N=C2\CC[C@H]3[C@@]45C=C[C@]6(C[C@@H](O)CC[C@]6(C)[C@@H]4CC[C@]23C)OO5)cc1
IC50 (SK-HEP1): 14.6 µM | IC50 (MDA-MB-231): 15.8 µM | IC50 (MCF7): 20.4 µM | IC50 (HepG2): 12.1 µM

Cc1ccc(NC(=O)CO/N=C2\CC[C@H]3[C@@]45C=C[C@]6(C[C@@H](O)CC[C@]6(C)[C@@H]4CC[C@]23C)OO5)cc1
IC50 (SK-HEP1): 46.3 µM | IC50 (MDA-MB-231): > 80 µM | IC50 (MCF7): 62.2 µM | IC50 (HepG2): 38.3 µM

COc1cccc(NC(=O)CO/N=C2\CC[C@H]3[C@@]45C=C[C@]6(C[C@@H](O)CC[C@]6(C)[C@@H]4CC[C@]23C)OO5)c1
IC50 (SK-HEP1): 50.2 µM | IC50 (MDA-MB-231): 57.3 µM | IC50 (MCF7): 43.2 µM | IC50 (HepG2): 44.9 µM

C[C@]12CC[C@@H]3[C@]4(C=C[C@]5(C[C@@H](O)CC[C@]35C)OO4)[C@@H]1CC/C2=N\OCC(=O)Nc1ccccc1
IC50 (SK-HEP1): 60.4 µM | IC50 (MDA-MB-231): 74.2 µM | IC50 (MCF7): > 80 µM | IC50 (HepG2): 48.3 µM

C[C@]12CC[C@@H]3[C@]4(C=C[C@]5(C[C@@H](O)CC[C@]35C)OO4)[C@@H]1CC/C2=N\OCC(=O)Nc1ccc(F)cc1
IC50 (SK-HEP1): 10.7 µM | IC50 (MDA-MB-231): 12.7 µM | IC50 (MCF7): 14.5 µM | IC50 (HepG2): 15.8 µM

CC(C)c1ccc(NC(=O)CO/N=C2\CC[C@H]3C4=CC=C5C[C@@H](O)CC[C@]5(C)[C@H]4CC[C@]23C)cc1
IC50 (SK-HEP1): 23.2 µM | IC50 (MDA-MB-231): 35 µM | IC50 (MCF7): 31.6 µM | IC50 (HepG2): 26.7 µM

Cc1cccc(NC(=O)CO/N=C2\CC[C@H]3[C@@]45C=C[C@]6(C[C@@H](O)CC[C@]6(C)[C@@H]4CC[C@]23C)OO5)c1
IC50 (SK-HEP1): 30.6 µM | IC50 (MDA-MB-231): 45.5 µM | IC50 (MCF7): 41.6 µM | IC50 (HepG2): 35.4 µM

C[C@]12CC[C@H](O)CC1=CC=C1[C@@H]2CC[C@]2(C)/C(=N/OCC(=O)Nc3cccc(C(F)(F)F)c3)CC[C@@H]12
IC50 (SK-HEP1): 16.5 µM | IC50 (MDA-MB-231): 19.4 µM | IC50 (MCF7): 21.3 µM | IC50 (HepG2): 14.4 µM

COc1cccc(NC(=O)CO/N=C2\CC[C@H]3C4=CC=C5C[C@@H](O)CC[C@]5(C)[C@H]4CC[C@]23C)c1
IC50 (SK-HEP1): > 80 µM | IC50 (MDA-MB-231): 59.3 µM | IC50 (MCF7): > 80 µM | IC50 (HepG2): 70.6 µM

CC(C)[C@@H](C)/C=C/[C@@H](C)[C@H]1CC[C@@H]2[C@]1(C)CC[C@@H]1[C@]23C=C[C@]2(C[C@@H](O)CC[C@]12C)OO3
IC50 (SK-HEP1): 17.2 µM | IC50 (MDA-MB-231): 19.2 µM | IC50 (MCF7): 23.3 µM | IC50 (HepG2): 15.8 µM

C[C@]12CC[C@@H]3[C@]4(C=C[C@]5(C[C@@H](O)CC[C@]35C)OO4)[C@@H]1CC/C2=N\OCC(=O)Nc1cccc(F)c1
IC50 (SK-HEP1): 37.6 µM | IC50 (MDA-MB-231): 26.3 µM | IC50 (MCF7): 29.5 µM | IC50 (HepG2): 40.5 µM

C[C@]12CC[C@H](O)CC1=CC=C1[C@@H]2CC[C@]2(C)/C(=N/OCC(=O)Nc3ccccc3)CC[C@@H]12
IC50 (SK-HEP1): 73.8 µM | IC50 (MDA-MB-231): > 80 µM | IC50 (MCF7): > 80 µM | IC50 (HepG2): > 80 µM

CCN(CC)c1ccc2cc(C(=O)NCC(=O)OC3CC[C@]4(C)[C@@H]5CC[C@]6(C)/C(=N/OCC(=O)Nc7ccc(C(C)C)cc7)CC[C@H]6[C@@]56C=C[C@]4(C3)OO6)c(=O)oc2c1 (some centres undefined)
IC50 (SK-HEP1): 7.52 µM | Drug uptake [1]: Active | Drug uptake [2]: Active | IC50 (MDA-MB-231): 7.22 µM | IC50 (MCF7): 9.64 µM | IC50 (HepG2): 8.4 µM

COc1ccc(NC(=O)CO/N=C2\CC[C@H]3[C@@]45C=C[C@]6(C[C@@H](O)CC[C@]6(C)[C@@H]4CC[C@]23C)OO5)cc1
IC50 (SK-HEP1): 41.4 µM | IC50 (MDA-MB-231): 46.4 µM | IC50 (MCF7): 52.2 µM | IC50 (HepG2): 49.5 µM

Cc1ccc(NC(=O)CO/N=C2\CC[C@H]3[C@@]45C=C[C@]6(C[C@@H](O)CC[C@]6(C)[C@@H]4CC[C@]23C)OO5)cc1Cl
IC50 (SK-HEP1): 12.1 µM | IC50 (MDA-MB-231): 17.5 µM | IC50 (MCF7): 22.7 µM | IC50 (HepG2): 9.3 µM

C#Cc1cccc(NC(=O)CO/N=C2\CC[C@H]3[C@@]45C=C[C@]6(C[C@@H](O)CC[C@]6(C)[C@@H]4CC[C@]23C)OO5)c1
IC50 (SK-HEP1): 38.2 µM | IC50 (MDA-MB-231): 25.1 µM | IC50 (MCF7): 31.6 µM | IC50 (HepG2): 44.2 µM

C[C@]12CC[C@H](O)CC1=CC=C1[C@@H]2CC[C@]2(C)/C(=N/OCC(=O)Nc3cccc(Cl)c3)CC[C@@H]12
IC50 (SK-HEP1): 26.6 µM | IC50 (MDA-MB-231): 33.5 µM | IC50 (MCF7): 42.1 µM | IC50 (HepG2): 22.7 µM
